Results published in patent US8952024B2, “Herbicidal pyrimidone derivatives” (E I du Pont de Nemours and Company, priority 2009, dated 2015).

Columns and labels:
Type in all cases: in vivo
[1] = system: velvetleaf (Abutilon theophrasti); test: Test B pre-/postemergence plant response
In short: (§1)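 Response scores were assigned visually after 13 to 15 days in a greenhouse, comparing treated pots with controls on a 0–100 scale where 100 denotes complete control. Preemergence treatments went onto freshly seeded loam/sand soil; postemergence treatments onto plants 2 to 18 cm tall.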

[2] = system: Surinam grass (Brachiaria decumbens); test: Test B pre-/postemergence plant response
In short: as §1

[3] = system: blackgrass (Alopecurus myosuroides); test: Test B pre-/postemergence plant response
In short: as §1

[4] = system: woolly cupgrass (Eriochloa villosa); test: Test B pre-/postemergence plant response
In short: as §1

[5] = system: downy bromegrass (Bromus tectorum); test: Test B pre-/postemergence plant response
In short: as §1

[6] = system: morningglory (Ipomoea coccinea); test: Test B pre-/postemergence plant response
In short: as §1

[7] = system: wheat (Triticum aestivum); test: Test B pre-/postemergence plant response
In short: as §1

[8] = system: large crabgrass (Digitaria sanguinalis); test: Test B pre-/postemergence plant response
In short: as §1

[9] = system: yellow nutsedge (Cyperus esculentus); test: Test B pre-/postemergence plant response
In short: as §1

[10] = system: goosegrass (Eleusine indica); test: Test B pre-/postemergence plant response
In short: as §1

[11] = system: Italian ryegrass (Lolium multiflorum); test: Test B pre-/postemergence plant response
In short: as §1

[12] = system: pigweed (Amaranthus retroflexus); test: Test A pre-/postemergence plant response
In short: (§2)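 Injury scores (0, no effect; 100, complete control) come from visual comparison with untreated controls roughly ten days post-treatment. Test chemicals in a surfactant-containing non-phytotoxic solvent were applied as a directed soil spray preemergence and to one- to two-leaf seedlings postemergence.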

[13] = system: barnyardgrass (Echinochloa crus-galli); test: Test A pre-/postemergence plant response
In short: as §2

[14] = 250 g ai/ha, Preemergence, 0 to 100 scale
[15] = Postemergence, 31 g ai/ha, scale 0 to 100 (0 no effect, 100 complete control)
[16] = Postemergence, 62 g ai/ha, scale 0 (no effect) to 100 (complete control), 13 to 15 days
[17] = Postemergence, 125 g ai/ha, visual rating after 13 to 15 days, scale 0 (no effect) to 100 (complete control)
[18] = Postemergence, 250 g ai/ha, scale 0 to 100
[19] = Preemergence, 31 g ai/ha, scale 0 to 100 (0 no effect, 100 complete control)
[20] = Preemergence, 62 g ai/ha, scale 0 to 100, 0 no effect, 100 complete control
[21] = Preemergence, 125 g ai/ha, 0 to 100 scale
[22] = Postemergence, 125 g ai/ha, visual injury, 0 to 100 scale (0 no effect, 100 complete control), approx. ten days
[23] = Postemergence, 500 g ai/ha, 0 to 100 scale, 0 = no effect, 100 = complete control, approx. ten days
[24] = Preemergence, 125 g ai/ha, 0 to 100 scale, 0 = no effect, 100 = complete control
[25] = Preemergence, 500 g ai/ha, visual injury, 0 to 100 scale (0 no effect, 100 complete control), approx. ten days

Substance: 5-[(2-hydroxy-6-oxo-1-cyclohexen-1-yl)carbonyl]-3-(2-methoxyethyl)-2-(3-thienyl)-4(3H)-pyrimidinone [Compound 97]
- Plant response rating, Velvetleaf [1, 14]: 100
- Plant response rating, Velvetleaf [1, 15]: 70
- Plant response rating, Velvetleaf [1, 16]: 70
- Plant response rating, Velvetleaf [1, 17]: 75
- Velvetleaf plant response rating [1, 18]: 85
- Plant response rating, Velvetleaf [1, 19]: 55
- Plant response rating, Velvetleaf [1, 20]: 100
- Velvetleaf plant response rating [1, 21]: 100
- Plant response rating, Surinam Grass [2, 14]: 80
- Plant response rating, Surinam Grass [2, 15]: 60
- Plant response rating, Surinam Grass [2, 16]: 70
- Plant response rating, Surinam Grass [2, 17]: 70
- Surinam Grass plant response rating [2, 18]: 80
- Plant response rating, Surinam Grass [2, 19]: 0
- Plant response rating, Surinam Grass [2, 20]: 10
- Surinam Grass plant response rating [2, 21]: 15
- Plant response rating, Blackgrass [3, 14]: 20
- Plant response rating, Blackgrass [3, 15]: 0
- Plant response rating, Blackgrass [3, 16]: 0
- Plant response rating, Blackgrass [3, 17]: 50
- Blackgrass plant response rating [3, 18]: 50
- Plant response rating, Blackgrass [3, 19]: 0
- Plant response rating, Blackgrass [3, 20]: 0
- Blackgrass plant response rating [3, 21]: 0
- Plant response rating, Cupgrass, Woolly [4, 14]: 40
- Plant response rating, Cupgrass, Woolly [4, 15]: 60
- Plant response rating, Cupgrass, Woolly [4, 16]: 70
- Plant response rating, Cupgrass, Woolly [4, 17]: 70
- Cupgrass, Woolly plant response rating [4, 18]: 75
- Plant response rating, Cupgrass, Woolly [4, 19]: 0
- Plant response rating, Cupgrass, Woolly [4, 20]: 10
- Cupgrass, Woolly plant response rating [4, 21]: 35
- Plant response rating, Bromegrass, Downy [5, 14]: 0
- Plant response rating, Bromegrass, Downy [5, 15]: 0
- Plant response rating, Bromegrass, Downy [5, 16]: 0
- Plant response rating, Bromegrass, Downy [5, 17]: 10
- Bromegrass, Downy plant response rating [5, 18]: 20
- Plant response rating, Bromegrass, Downy [5, 19]: 0
- Plant response rating, Bromegrass, Downy [5, 20]: 0
- Bromegrass, Downy plant response rating [5, 21]: 0
- Plant response rating, Morningglory [6, 14]: 40
- Plant response rating, Morningglory [6, 15]: 0
- Plant response rating, Morningglory [6, 16]: 45
- Plant response rating, Morningglory [6, 17]: 45
- Morningglory plant response rating [6, 18]: 55
- Plant response rating, Morningglory [6, 19]: 0
- Plant response rating, Morningglory [6, 20]: 0
- Morningglory plant response rating [6, 21]: 0
- Plant response rating, Wheat [7, 14]: 5
- Plant response rating, Wheat [7, 15]: 0
- Plant response rating, Wheat [7, 16]: 0
- Plant response rating, Wheat [7, 17]: 0
- Wheat plant response rating [7, 18]: 5
- Plant response rating, Wheat [7, 19]: 0
- Wheat plant response rating [7, 21]: 0
- Plant response rating, Crabgrass, Large [8, 14]: 95
- Plant response rating, Crabgrass, Large [8, 15]: 65
- Plant response rating, Crabgrass, Large [8, 16]: 70
- Plant response rating, Crabgrass, Large [8, 17]: 75
- Crabgrass, Large plant response rating [8, 18]: 80
- Plant response rating, Crabgrass, Large [8, 19]: 0
- Plant response rating, Crabgrass, Large [8, 20]: 0
- Crabgrass, Large plant response rating [8, 21]: 70
- Plant response rating, Nutsedge, Yellow [9, 14]: 75
- Plant response rating, Nutsedge, Yellow [9, 15]: 15
- Plant response rating, Nutsedge, Yellow [9, 16]: 55
- Plant response rating, Nutsedge, Yellow [9, 17]: 60
- Nutsedge, Yellow plant response rating [9, 18]: 75
- Plant response rating, Nutsedge, Yellow [9, 19]: 0
- Plant response rating, Nutsedge, Yellow [9, 20]: 0
- Nutsedge, Yellow plant response rating [9, 21]: 55
- Plant response rating, Goosegrass [10, 14]: 98
- Plant response rating, Goosegrass [10, 15]: 45
- Plant response rating, Goosegrass [10, 16]: 75
- Plant response rating, Goosegrass [10, 17]: 95
- Goosegrass plant response rating [10, 18]: 98
- Plant response rating, Goosegrass [10, 19]: 0
- Goosegrass plant response rating [10, 21]: 95
- Plant response rating, Ryegrass, Italian [11, 14]: 0
- Plant response rating, Ryegrass, Italian [11, 15]: 0
- Plant response rating, Ryegrass, Italian [11, 16]: 0
- Plant response rating, Ryegrass, Italian [11, 17]: 0
- Ryegrass, Italian plant response rating [11, 18]: 20
- Plant response rating, Ryegrass, Italian [11, 19]: 0
- Plant response rating, Ryegrass, Italian [11, 20]: 0
- Ryegrass, Italian plant response rating [11, 21]: 0
- Pigweed plant response rating [12, 22]: 100
- Plant response rating, Pigweed [12, 23]: 100
- Plant response rating, Pigweed [12, 24]: 100
- Plant response rating, Pigweed [12, 25]: 100
- Barnyardgrass plant response rating [13, 22]: 90
- Plant response rating, Barnyardgrass [13, 23]: 90
- Plant response rating, Barnyardgrass [13, 24]: 30
- Plant response rating, Barnyardgrass [13, 25]: 90
